Experiments:
Format in all cases: cell-based
NCI-H23 = experiment: SRB growth assay, 6 days exposure, non-small cell lung cancer; conditions: NCI-H23, 6 days
Protocol: (§1) Arsenic trioxide (1 mg/ml, 10 mg/ampoule, manufactured by Taylor Pharmaceuticals, Decatur, Ill.) was tested at five concentrations each at 10-fold dilutions, i.e., 10^−5, 10^−6, 10^−7, 10^−8 and 10^−9 μg/ml.
(§2) The in vitro tests were performed by incubating the test cells in the presence of the indicated concentration of arsenic trioxide under standard culture conditions for a designated period of time, which is followed by a sulforhodamine B (SRB) protein assay to estimate cell viability or growth. The cell lines are organized into subpanels according to the origin of the cell lines, e.g., leukemia, breast cancer, etc. A description of the cell lines and method of testing is described in Monk et al. (1997, Anticancer Drug Des. 12:533-41) and Weinstein et al., (1997, Science 275:343-9), which are incorporated herein in their entirety.
(§3) The measurement of an effect is expressed in Percentage Growth (PG). The measured effect of the compound on a cell line is calculated according to one or the other of the following two expressions: If (Mean ODtest−Mean ODzero)≧0. then PG=100×(Mean ODtest−Mean ODzero)/(Mean ODctrl−Mean ODzero) If (Mean ODtest−Mean ODzero)<0. then PG=100×(Mean ODtest−Mean ODzero)/(Mean ODzero where: • Mean ODzero=the average of optical density measurements of SRB-derived color just before exposure of cells to the test compounds; • Mean ODtest=the average of optical density measurements of SRB-derived color after exposure of cells to the test compound for a designated period of time; and • Mean ODctrl=the average of optical density measurements of SRB-derived color after with no exposure of cells to the test compound for a designated period of time
(§4) The first two columns describe the subpanel (e.g., leukemia) and cell line (e.g., CCRF-CEM) involved. The next two columns list the Mean ODzero and Mean ODctrl; the next five columns list the Mean ODtest for each of five different concentrations. Each concentration is expressed as the log10 (molar or μg/ml). The next five columns list the calculated PGs for each concentration. The response parameters GI50, TGI and LC50 are interpolated values representing the concentrations at which the PG is +50, 0, and −50, respectively. Sometimes these response parameters cannot be obtained by interpolation. If, for instance, all of the PGs in a given row exceed +50, then none of the three parameters can be obtained by interpolation. In such a case, the value given for each response parameter is the highest concentration tested and is preceded by a “>” sign. This practice is extended similarly to the other possible situations where a response parameter cannot be obtained by interpolation.
(§5) In the first set, the cells from 56 different cancer cell lines were exposed to five concentrations of arsenic trioxide continuously for two days prior to performing the SRB assay. In the second set, the cells from 50 different cell lines (a subset of the first 56 cell lines, plus the renal cancer cell line 786-0) were exposed continuously for six days prior to the SRB assay.

NCI-H226 = experiment: as above; conditions: NCI-H226, 6 days
Protocol: as §1, §2, §3, §4, §5

SK-MEL-28 = experiment: SRB growth assay, 6 days exposure, melanoma; conditions: SK-MEL-28, 6 days
Protocol: as §1, §2, §3, §4, §5

UACC-257 = experiment: SRB growth assay, 6 days exposure, melanoma; conditions: UACC-257, 6 days
Protocol: as §1, §2, §3, §4, §5

CCRF-CEM = experiment: SRB growth assay, 6 days exposure, leukemia
Protocol: as §1, §2, §3, §4, §5

K-562 = experiment: SRB growth assay, 6 days exposure, leukemia; conditions: K-562, 6 days
Protocol: as §1, §2, §3, §4, §5

RPMI-8226 = experiment: SRB growth assay, 6 days exposure, leukemia; conditions: RPMI-8226, 6 days
Protocol: as §1, §2, §3, §4, §5

MOLT-4 = experiment: SRB growth assay, 6 days exposure, leukemia; conditions: MOLT-4, 6 days
Protocol: as §1, §2, §3, §4, §5

[1] = read-out: LC50 (the source's name)

In the case of arsenic trioxide, the “Mean Optical Densities” value (NCI-H23; Log 10 Concentration −4.9) is reported as 0.086, the “Percent Growth” value (NCI-H23; Log 10 Concentration −4.9) is reported as 1% and the “Mean Optical Densities” value (NCI-H23; Log 10 Concentration −5.9) is reported as 1.303. The “Percent Growth” value (NCI-H23; Log 10 Concentration −5.9) was 79%, the “Mean Optical Densities” value (NCI-H23; Log 10 Concentration −6.9) was 1.872 and the “Percent Growth” value (NCI-H23; Log 10 Concentration −6.9) was 116%. The “Mean Optical Densities” value (NCI-H23; Log 10 Concentration −7.9) was 1.814, the “Percent Growth” value (NCI-H23; Log 10 Concentration −7.9) was 112% and the “Mean Optical Densities” value (NCI-H23; Log 10 Concentration −8.9) was 1.818. For the same substance, the “Percent Growth” value (NCI-H23; Log 10 Concentration −8.9) was 113%, the CC50 (NCI-H23; [1]) was greater than 12.6 µM and the “Mean Optical Densities” value (NCI-H226; Log 10 Concentration −4.9) was 0.164. The “Percent Growth” value (NCI-H226; Log 10 Concentration −4.9) was 17%, the “Mean Optical Densities” value (NCI-H226; Log 10 Concentration −5.9) was 0.348 and the “Percent Growth” value (NCI-H226; Log 10 Concentration −5.9) was 63%. The “Mean Optical Densities” value (NCI-H226; Log 10 Concentration −6.9) was 0.489, the “Percent Growth” value (NCI-H226; Log 10 Concentration −6.9) was 98% and the “Mean Optical Densities” value (NCI-H226; Log 10 Concentration −7.9) was 0.458. For the same substance, the “Percent Growth” value (NCI-H226; Log 10 Concentration −7.9) was 90%, the “Mean Optical Densities” value (NCI-H226; Log 10 Concentration −8.9) was 0.504 and the “Percent Growth” value (NCI-H226; Log 10 Concentration −8.9) was 101%. For the same substance, the CC50 (NCI-H226; [1]) was greater than 12.6 µM, the TGI (SK-MEL-28) was 1.86E−06 and the “Percent Growth” value (SK-MEL-28; Log 10 Concentration −4.9) was −100%. For the same substance, the “Mean Optical Densities” value (SK-MEL-28; Log 10 Concentration −5.9) was 0.488, the “Percent Growth” value (SK-MEL-28; Log 10 Concentration −5.9) was 20% and the “Mean Optical Densities” value (SK-MEL-28; Log 10 Concentration −6.9) was 1.797. The “Percent Growth” value (SK-MEL-28; Log 10 Concentration −6.9) was 88%, the “Mean Optical Densities” value (SK-MEL-28; Log 10 Concentration −7.9) was 1.906 and the “Percent Growth” value (SK-MEL-28; Log 10 Concentration −7.9) was 94%. For the same substance, the “Mean Optical Densities” value (SK-MEL-28; Log 10 Concentration −8.9) was 2.012, the “Percent Growth” value (SK-MEL-28; Log 10 Concentration −8.9) was 99% and the TGI (UACC-257) was 5.83E−06. For the same substance, the “Mean Optical Densities” value (UACC-257; Log 10 Concentration −4.9) was 0.039, the “Percent Growth” value (UACC-257; Log 10 Concentration −4.9) was −27% and the “Mean Optical Densities” value (UACC-257; Log 10 Concentration −5.9) was 0.504. For the same substance, the “Percent Growth” value (UACC-257; Log 10 Concentration −5.9) was 54%, the “Mean Optical Densities” value (UACC-257; Log 10 Concentration −6.9) was 0.832 and the “Percent Growth” value (UACC-257; Log 10 Concentration −6.9) was 94%. The “Mean Optical Densities” value (UACC-257; Log 10 Concentration −7.9) was 0.857, the “Percent Growth” value (UACC-257; Log 10 Concentration −7.9) was 97% and the “Mean Optical Densities” value (UACC-257; Log 10 Concentration −8.9) was 0.872. For the same substance, the “Percent Growth” value (UACC-257; Log 10 Concentration −8.9) was 99%, the CC50 (UACC-257; [1]) was greater than 12.6 µM and the TGI (CCRF-CEM) was greater than 1.26E−05. The “Mean Optical Densities” value (CCRF-CEM; Log 10 Concentration −4.9) was 0.048, the “Percent Growth” value (CCRF-CEM; Log 10 Concentration −4.9) was 0% and the “Mean Optical Densities” value (CCRF-CEM; Log 10 Concentration −5.9) was 0.320. The “Percent Growth” value (CCRF-CEM; Log 10 Concentration −5.9) was 8%, the “Mean Optical Densities” value (CCRF-CEM; Log 10 Concentration −6.9) was 3.051 and the “Percent Growth” value (CCRF-CEM; Log 10 Concentration −6.9) was 87%. For the same substance, the “Mean Optical Densities” value (CCRF-CEM; Log 10 Concentration −7.9) was 3.592, the “Percent Growth” value (CCRF-CEM; Log 10 Concentration −7.9) was 102% and the “Mean Optical Densities” value (CCRF-CEM; Log 10 Concentration −8.9) was 3.601. The “Percent Growth” value (CCRF-CEM; Log 10 Concentration −8.9) was 103%, the CC50 (CCRF-CEM; [1]) was greater than 12.6 µM and the TGI (K-562) was greater than 1.26E−05. The “Mean Optical Densities” value (K-562; Log 10 Concentration −4.9) was 0.096, the “Percent Growth” value (K-562; Log 10 Concentration −4.9) was 2% and the “Mean Optical Densities” value (K-562; Log 10 Concentration −5.9) was 2.931. The “Percent Growth” value (K-562; Log 10 Concentration −5.9) was 97%, the “Mean Optical Densities” value (K-562; Log 10 Concentration −6.9) was 3.360 and the “Percent Growth” value (K-562; Log 10 Concentration −6.9) was 112%. The “Mean Optical Densities” value (K-562; Log 10 Concentration −7.9) was 2.992, the “Percent Growth” value (K-562; Log 10 Concentration −7.9) was 99% and the “Mean Optical Densities” value (K-562; Log 10 Concentration −8.9) was 3.042. The “Percent Growth” value (K-562; Log 10 Concentration −8.9) was 101%, the CC50 (K-562; [1]) was greater than 12.6 µM and the “Mean Optical Densities” value (RPMI-8226; Log 10 Concentration −4.9) was 0.065. For the same substance, the “Percent Growth” value (RPMI-8226; Log 10 Concentration −4.9) was −2%, the “Mean Optical Densities” value (RPMI-8226; Log 10 Concentration −5.9) was 0.368 and the “Percent Growth” value (RPMI-8226; Log 10 Concentration −5.9) was 22%. For the same substance, the “Mean Optical Densities” value (RPMI-8226; Log 10 Concentration −6.9) was 1.423, the “Percent Growth” value (RPMI-8226; Log 10 Concentration −6.9) was 99% and the “Mean Optical Densities” value (RPMI-8226; Log 10 Concentration −7.9) was 1.263. For the same substance, the “Percent Growth” value (RPMI-8226; Log 10 Concentration −7.9) was 88%, the “Mean Optical Densities” value (RPMI-8226; Log 10 Concentration −8.9) was 1.607 and the “Percent Growth” value (RPMI-8226; Log 10 Concentration −8.9) was 113%. For the same substance, the CC50 (RPMI-8226; [1]) was greater than 12.6 µM, the TGI (MOLT-4) was greater than 1.26E−05 and the “Mean Optical Densities” value (MOLT-4; Log 10 Concentration −4.9) was 0.113. The “Percent Growth” value (MOLT-4; Log 10 Concentration −4.9) was 20%, the “Mean Optical Densities” value (MOLT-4; Log 10 Concentration −5.9) was 0.245 and the “Percent Growth” value (MOLT-4; Log 10 Concentration −5.9) was 47%. For the same substance, the “Mean Optical Densities” value (MOLT-4; Log 10 Concentration −6.9) was 0.432, the “Percent Growth” value (MOLT-4; Log 10 Concentration −6.9) was 85% and the “Mean Optical Densities” value (MOLT-4; Log 10 Concentration −7.9) was 0.228. For the same substance, the “Percent Growth” value (MOLT-4; Log 10 Concentration −7.9) was 43%, the “Mean Optical Densities” value (MOLT-4; Log 10 Concentration −8.9) was 0.554 and the “Percent Growth” value (MOLT-4; Log 10 Concentration −8.9) was 111%.

Source: patent US6875451B2, “Compositions and methods for the treatment of primary and metastatic neoplastic diseases using arsenic compounds” (PolaRx Biopharmaceuticals Inc., priority 1997, dated 2005)
